# Data: patent US8927594B2, “Compounds from soft coral, method of preparation and pharmaceutical uses thereof” (National Sun Yat-Sen University, priority 2010, dated 2015)
# Key:
# [1] = system: iNOS; assay: iNOS protein expression in LPS-stimulated RAW264.7 macrophage cells, immunoblot analysis; type: cell-based, mouse; details: for levels of iNOS protein relative to control cells stimulated with LPS only: concentration of 10 mM (so in the source), LPS alone = 100%, mean±SEM, n=6; for effect on expression of inducible nitric oxide synthase of macrophage cells stimulated with LPS (in words, summary): concentration not stated; for effect on expression of iNOS protein relative to control cells stimulated with LPS only (in words): FIG. 2
# Method: (§1) A mouse macrophage cell line, RAW 264.7, purchased from the American Type Culture Collection (ATCC, No TIB-71) was chosen in the in vitro model. The cells were cultured in DMEM (Dulcbecco/s Modified Eagle medium) containing 10% fetal bovine serum (FBS) and penicillin G (100 U/ml) and streptomycin (100 μg/ml) at 37° C. and 5% CO2. When reaching 80% confluence, the cells were subcultured with trypsin. The cells were subjected to an anti-inflammation assay after subcultured for 36 hours. 3×10^6 RAW264.7 cells were cultured in a 10-cm culture dish and administered with lipopolysaccharide (LPS, 0.01 μg/ml; Sigma L2654). After 16 hours, the cells were collected. In an experiment group, the compound represented by formula 3 was added into the culture dish and followed by LPS before 10 minutes.
# (§2) The collected RAW264.7 cells were dissolved with 200 μL of 4° C. lysis buffer (50 mM Tris [pH 7.5], 150 mM NaCl, 1% TritonX-100, 0.1 mM EDTA, 0.1 mM EGTA, 10 μg PMSF, 1 aprotinin, 20 mM NaF, and 0.2 mM Na3VO4). The samples were centrifuged at 25,000 g for 30 minutes at 4° C. for removing the pellet. The supernatant was assayed with Bio-Rad DC protein assay kit (Bio-Rad Laboratories, Hercules, Calif., USA) and the absorbance was read with an ELISA reader (Thermo Electron Corporation, USA) for estimating the protein contents. The calibrated samples with equal volumes were added with a sample buffer (2% SDS, 10% glycerol, 0.1% bromophenol blue, 10% 2-mercaptoethanol, and 50mM Tris) of the same volume. Proteins were separated with 10% SDS-PAGE and transferred to a PVDF membrane ([…], Immobilon-P, Millipore, Bedford, Mass., USA) (1.5 A, 4° C., 2.5 hours). The transferred PVDF membranes were blocked with TTBS (Tris-HCl 20 mM, NaCl 137 mM, pH 7.4 and 0.1% Tween 20) containing 5% skim milk at room temperature for 1 hour and reacted with polyclonal anti-inducible nitric oxide synthase antibody (Transduction Laboratories, Lexington, Ky., USA) or polyclonal anti-cyclooxygenase-2 antibody (Cayman, Ann Arbor, Mich., USA) at room temperature for 3 hours. After washed with TTBS three times, the samples were reacted with HRP-conjugated anti-rabbit IgG antibody (1:2000) at room temperature for 1 hour. After washed with TTBS for three times, an enhanced chemiluminescence detection kit was used for reating with the PVDF membrane and exposed with an X-ray film (Kodak X-OMAT LS, Kodak, Rochester, N.Y., USA) for detecting the protein expression. The relative amount was calculated with Image-Pro plus 4.5 software (Media Cybernetics, Silver Spring, USA). The group added with only LPS was taken as 100%. β-actin (monoclonal antibody, Sigma, St Louis, Mo., USA) was taken as an internal control.
# [2] = system: COX-2; assay: COX-2 protein expression in LPS-stimulated RAW264.7 macrophage cells, immunoblot analysis; type: cell-based, mouse; details: for effect on expression of cyclooxygenase-2 of macrophage cells stimulated with LPS (in words, summary): concentration not stated; for effect on COX-2 expression with LPS treatment (in words): FIG. 2
# Method: as §1, §2
# [3] = Cytotoxicity, MTT colorimetric method, Hep G2; type: cell-based; details: human, Hep G2 cells (hepatocellular carcinoma)
# Method: (§3) Cell lines were purchased from the American Type Culture Collection (ATCC). Cytotoxicity assays were performed using the MTT [3-(4,5-dimethylthiazol-2-yl)-2,5-diphenyltetrazolium bromide] colorimetric method.
# [4] = Cytotoxicity, MTT colorimetric method, MDA-MB-231; type: cell-based; details: human, MDA-MB-231 cells (breast carcinoma)
# Method: as §3
# [5] = Cytotoxicity, MTT colorimetric method, Hep 3B; type: cell-based; details: human, Hep 3B cells (hepatocellular carcinoma)
# Method: as §3
# [6] = Cytotoxicity, MTT colorimetric method, A549; type: cell-based; details: human, A549 cells (lung carcinoma)
# Method: as §3
# [7] = Cytotoxicity, MTT colorimetric method, Ca9-22; type: cell-based; details: human, Ca9-22 cells (gingival carcinoma)
# Method: as §3
# [8] = Cytotoxicity, MTT colorimetric method, MCF-7; type: cell-based; details: human, MCF-7 cells (breast carcinoma)
# Method: as §3
# [9] = 10 μM, RAW264.7 cells + LPS, same experimental condition
smiles,measurement,setting,value
"O=C(/C=C/c1ccc(O)c(O)c1)OCCc1ccccc1 [CAPE, caffeic acid phenylethyl ester, reference compound]","level of iNOS, relative intensity (LPS alone = 100%)",[1]; [9],2.5±3.7%
same,"level of COX-2, relative intensity (LPS alone = 100%)",[2]; [9],67.2±13.4%
CCCC(=O)O[C@H]1[C@H](C(C)C)[C@@H]2[C@@H]([C@H]3C[C@](C)([S+](C)[O-])CCC[C@@](C)(OC(=O)CCC)[C@@H]2O3)[C@](C)(O)[C@@H]1OC(C)=O (stereo partly shown) [formula 3],levels of iNOS protein relative to control cells stimulated with LPS only,[1]; RAW264.7 cells + LPS,17.8±4.7%
same,"effect on expression of inducible nitric oxide synthase of macrophage cells stimulated with LPS (in words, summary)",[1],significantly lowered
C=C1C[C@H]2O[C@H]([C@@H]3[C@@H](C(C)C)[C@H](OC(=O)CC[S+](C)[O-])[C@@H](OC(C)=O)[C@@](C)(O)[C@@H]32)[C@](C)(OC(=O)CCC)CC[C@@H]1O (stereo partly shown) [formula 4],levels of iNOS protein relative to control cells stimulated with LPS only,[1]; RAW264.7 cells + LPS,11.3±1.5%
same,"effect on expression of inducible nitric oxide synthase of macrophage cells stimulated with LPS (in words, summary)",[1],significantly lowered
same,COX-2 expression relative to control cells stimulated with LPS only,"[2]; concentration of 10 mM (so in the source), RAW264.7 cells + LPS, LPS alone = 100%, mean±SEM, n=6",7.2±2.5%
same,"effect on expression of cyclooxygenase-2 of macrophage cells stimulated with LPS (in words, summary)",[2],significantly lowered
C=C1CC[C@@H](O)[C@]2(C)C[C@H](OC(C)=O)[C@@H]3[C@@H]([C@@H](C(C)C)CC[C@@]3(C)O)[C@H]12 [formula 16],IC50,[3],12.5 µg/mL
same,IC50,[4],16 µg/mL
same,IC50,[5],9.6 µg/mL
same,IC50,[6],15.3 µg/mL
same,IC50,[7],13.6 µg/mL
same,IC50,[8],9.9 µg/mL
C/C1=C/[C@@H]2[C@@H](C(C)C)CC[C@@](C)(O)[C@@H]2CC/C(C)=C/CC1 [formula 14],effect on expression of iNOS protein relative to control cells stimulated with LPS only (in words),"[1]; 10 μM, RAW264.7 cells + LPS",significantly reduce
same,"effect on expression of inducible nitric oxide synthase of macrophage cells stimulated with LPS (in words, summary)",[1],significantly reduce
same,effect on COX-2 expression with LPS treatment (in words),"[2]; 10 μM, RAW264.7 cells + LPS",effectively reduce
same,"effect on expression of cyclooxygenase-2 of macrophage cells stimulated with LPS (in words, summary)",[2],effectively reduce
CCCC(=O)O[C@]1(C)CC[C@H](OC(C)=O)[C@@](C)(O)C[C@H]2O[C@@H]1[C@@H]1[C@@H](C(C)C)[C@H](OC(C)=O)[C@@H](OC(C)=O)[C@@](C)(O)[C@@H]12 [formula 11],effect on expression of iNOS protein relative to control cells stimulated with LPS only (in words),"[1]; 10 μM, RAW264.7 cells + LPS",enhance the expression
same,effect on COX-2 expression with LPS treatment (in words),"[2]; 10 μM, RAW264.7 cells + LPS",enhance the expression
CCCC(=O)O[C@]1(C)CCC[C@@](C)([S+](C)[O-])C[C@H]2O[C@@H]1[C@H]1[C@@H]2[C@](C)(OC(C)=O)CC[C@@H]1C(C)C (stereo partly shown) [formula 2],levels of iNOS protein relative to control cells stimulated with LPS only,[1]; RAW264.7 cells + LPS,8.8±1.0%
same,"effect on expression of inducible nitric oxide synthase of macrophage cells stimulated with LPS (in words, summary)",[1],significantly lowered
